Source: publication PMC13400319 (Chemmedchem, 2026)
Like-named read-outs stand apart in the source and are kept apart here.

Target: T1, Aβ42 (Homo sapiens, UniProt P05067)
T1 construct: amyloid beta (1–42) (Aβ42) self‐aggregation; purchased GenicBio Limited (Shanghai, China)
Assay: Inhibition of Aβ42 self-aggregation (Thioflavin T fluorescence)
Format: biochemical
Settings: read-out: Inhibition of Aβ42 self-aggregation, %
Description: Inhibition of β-amyloid (1– 42) (Aβ42) self-aggregation
Inhibition of Aβ42 self-aggregation by test compounds was studied using the thioflavin T (ThT)
fluorescence method [8- 10] with minor modifications as described in detail in [11]. Lyophilized
HFIP- pretreated Aβ42 (GenicBio Limited (Shanghai, China), 1 mg) was dissolved in DMSO to
obtain a stable 500 μM solution.
pH 8.0 were incubated for 24 h at 37°C in the absence or presence of 100 μM test compounds.
Myricetin in the same concentration was used as reference. After incubation, 5 μM ThT in 50
mM glycine-NaOH buffer pH 8.5 was added, and the fluorescence was measured at 440 nm
Each assay was run in triplicate. The degree of
inhibition of Aβ42 self-aggregation by the studied compounds (%) was calculated by the
of inhibitor, respectively, after subtracting the fluorescence of respective blanks.

T1 sequence (P05067 672-713 limits assumed): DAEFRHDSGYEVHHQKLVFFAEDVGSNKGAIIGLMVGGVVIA

Row | SMILES | inhibition at 100 µM (Aβ42 50 µM, compound 100 µM) | inhibition at 100 µM
1 | Nc1c2c(nc3c1CCC3)CCCC2 [Amiridine, amiridine] | 6.4 ± 0.5% | 
2 | O=c1c(O)c(-c2cc(O)c(O)c(O)c2)oc2cc(O)cc(O)c12 [Myricetin] |  | 74.7 ± 5.2%
